Data as given in patent publication US10829796B2, “Bacteria identification and antimicrobial susceptibility test” (priority 2015, dated 2020).

Experiments:
Type in all cases: cell-based
[1] = test system: bacteria samples 4c, 4e, 5c, 5e, 6d; test: Antibiotic susceptibility testing (colour of media), plate configuration #3, reference colours at 0 hours for bacteria samples 4c, 4e, 5c, 5e, 6d; conditions: T~0 h
Streptococcus uberis = test: Antibiotic susceptibility testing (colour of media), spiked milk; conditions: T~16 h, 37° C., bacteria samples 6d, plate configuration #3
Method: (§1) Tables 36 to 38 which follow show further examples of antibiotic susceptibility testing performed in accordance with the present invention. Table 36, antibiotic susceptibility testing of Staphylococcus aureus in Mueller Hinton and Tryptic Soy Broth at pre-incubation and at between 15-24 h. Tables 37 and 38, antimicrobial susceptibility testing of Streptococcus uberis and E. coli with the addition of gram negative specific antibiotic aztreonam. Tables 38 to 49 show further examples of antibiotic susceptibility testing and the outcomes are aligned with the described inventions.

Escherichia coli = test: as above; conditions: 37° C., plate configuration #3
Method: as §1

Staphylococcus aureus = test: as above; conditions: T~16 h, 37° C., plate configuration #3
Method: as §1

[2] = Benzyl Penicillin or Cloxacillin 1 μg/ml
[3] = Benzyl Penicillin or Cloxacillin 10 μg/ml
[4] = Benzyl Penicillin or Cloxacillin 100 μg/ml
[5] = Benzyl Penicillin or Cloxacillin 1,000 μg/ml
[6] = Benzyl Penicillin or Cloxacillin 10,000 μg/ml

Cc1onc(-c2ccccc2Cl)c1C(=O)N[C@@H]1C(=O)N2[C@@H]1SC(C)(C)[C@@H]2C(=O)O [cloxacillin]
Colour of media in each well [1, 2]: red
Colour of media in each well [1, 3]: red
Colour of media in each well [1, 4]: red
Colour of media in each well [1, 5]: red
Colour of media in each well [1, 6]: red
Colour of media in each well (Streptococcus uberis; [2]): red
Colour of media in each well (Streptococcus uberis; [3]): red
Colour of media in each well (Streptococcus uberis; [4]): red
Colour of media in each well (Streptococcus uberis; [5]): red
Colour of media in each well (Streptococcus uberis; [6]): red
Colour of media in each well (Escherichia coli; T~16 h, bacteria samples 4c, Benzyl Penicillin or Cloxacillin 1 μg/ml): yellow
Colour of media in each well (Escherichia coli; T~16 h, bacteria samples 4c, Benzyl Penicillin or Cloxacillin 10 μg/ml): yellow
Colour of media in each well (Escherichia coli; T~16 h, bacteria samples 4c, Benzyl Penicillin or Cloxacillin 100 μg/ml): yellow
Colour of media in each well (Escherichia coli; T~16 h, bacteria samples 4c, Benzyl Penicillin or Cloxacillin 1,000 μg/ml): yellow
Colour of media in each well (Escherichia coli; T~16 h, bacteria samples 4c, Benzyl Penicillin or Cloxacillin 10,000 μg/ml): red
Colour of media in each well (Escherichia coli; t~16 h, bacteria samples 4e, Benzyl Penicillin or Cloxacillin 1 μg/ml): yellow
Colour of media in each well (Escherichia coli; t~16 h, bacteria samples 4e, Benzyl Penicillin or Cloxacillin 10 μg/ml): yellow
Colour of media in each well (Escherichia coli; t~16 h, bacteria samples 4e, Benzyl Penicillin or Cloxacillin 100 μg/ml): yellow
Colour of media in each well (Escherichia coli; t~16 h, bacteria samples 4e, Benzyl Penicillin or Cloxacillin 1,000 μg/ml): red
Colour of media in each well (Escherichia coli; t~16 h, bacteria samples 4e, Benzyl Penicillin or Cloxacillin 10,000 μg/ml): red
Colour of media in each well (Staphylococcus aureus; bacteria samples 5c, Benzyl Penicillin or Cloxacillin 1 μg/ml): red
Colour of media in each well (Staphylococcus aureus; bacteria samples 5c, Benzyl Penicillin or Cloxacillin 10 μg/ml): red
Colour of media in each well (Staphylococcus aureus; bacteria samples 5c, Benzyl Penicillin or Cloxacillin 100 μg/ml): red
Colour of media in each well (Staphylococcus aureus; bacteria samples 5c, Benzyl Penicillin or Cloxacillin 1,000 μg/ml): red
Colour of media in each well (Staphylococcus aureus; bacteria samples 5c, Benzyl Penicillin or Cloxacillin 10,000 μg/ml): red
Colour of media in each well (Staphylococcus aureus; bacteria samples 5e, Benzyl Penicillin or Cloxacillin 1 μg/ml): red
Colour of media in each well (Staphylococcus aureus; bacteria samples 5e, Benzyl Penicillin or Cloxacillin 10 μg/ml): red
Colour of media in each well (Staphylococcus aureus; bacteria samples 5e, Benzyl Penicillin or Cloxacillin 100 μg/ml): red
Colour of media in each well (Staphylococcus aureus; bacteria samples 5e, Benzyl Penicillin or Cloxacillin 1,000 μg/ml): red
Colour of media in each well (Staphylococcus aureus; bacteria samples 5e, Benzyl Penicillin or Cloxacillin 10,000 μg/ml): red
